Measurements as given in patent publication US20170247449A1, “THERAPEUTIC METHOD AND MEDICAMENT FOR CANCER PATIENTS BY FOLR1-TARGETING DRUG AND AN ANTAGONIST FOR FOLIC ACID METABOLISM” (KYOWA HAKKO KIRIN CO., LTD, priority 2014, published 2017).

How the values were obtained:
[1] = test system: FOLR1 expression in SKOV-3; test: Expression level of FOLR1 in ovarian cancer cell line after incubation with pemetrexed; type: cell-based, human
Experimental: (§1) After culturing each cell line under the above conditions, cells were detached using TrypLE Express, washed with phosphate buffer saline (PBS) and then suspended in FCM buffer (PBS containing 1 mmol/L EDTA, 0.05% sodium azide and 5% inactivated FCS).
(§2) Next, the cells were seeded in a 96-well plate at 1×10^5 cells per well and centrifuged at 1700 rpm for one minute. After removing the supernatant, an anti-human FOLR1 humanized antibody (HuRA15-7CTAcc antibody) (WO2014/087863) which was prepared at 10 μg/mL with FCM buffer was added to the cells and reacted for 30 minutes at 4° C.
(§3) After washing the cells, Anti-Human IgG-FITC (Jackson) which was diluted 100 times with the FCM buffer was added and reacted for 30 minutes at 4° C. After washing the cells again, the cells were suspended in the FCM buffer. The fluorescence intensities were analyzed with a flow cytometer (Beckman Coulter, Inc., FC500MPL) to determine the mean fluorescence intensity (MFI) of each cell.
(§4) First, SKOV-3 [American Type Culture Collection (hereinafter referred to as ATCC) No. HTB-77], MCAS (JCRB cell No. JCRB0240), NIH:OVCAR-3 (ATCC No. HTB-161) and IGR-OV1 (National Cancer Institute), which are ovarian cancer-derived cell lines, were cultured in the culture medium.

[2] = test system: FOLR1 expression in OVCAR-3; test: as above; type: cell-based, human; conditions: OVCAR-3 [FIG. 2(C)], low folic acid medium, regardless of the final pemetrexed concentration
Experimental: as §1, §2, §3, §4

[3] = test system: FOLR1 expression in IGR-OV1; test: as above; type: cell-based, human
Experimental: as §1, §2, §3, §4

[4] = test system: FOLR1 expression in MCAS; test: as above; type: cell-based, human
Experimental: as §1, §2, §3, §4

[5] = in vitro; conditions: human, MCAS ovarian cancer cells
Experimental: Then, detached cells were suspended in the folic acid-free medium, and the cells were seeded to 175-cm^2 TC flasks at 25×10^5 cells/28 mL. After 24-hour incubation, 14 mL of the 3× low folic acid medium was added, and the final folic acid concentration was adjusted at approximately 22.7 nmol/L. Then, pemetrexed was added to the culture at the final concentration of 0 or 20 nmol/L, and the cells were cultured for further 72 hours.
The cultured cells were detached from the culture flasks using 0.02% EDTA solution (Nacalai), and the cell counts and the viability were measured using Vi-CELL XR 2.01 (Beckman Coulter).

[6] = test system: FOLR1 expression in NCI-H838; test: Expression level of FOLR1 in NSCLC cell line after incubation with pemetrexed (flow cytometry, MFI); type: cell-based, human; conditions: NCI-H838, low folic acid medium, 0, 10 or 1000 nmol/L pemetrexed, 72 hours
Experimental: (§5) NSCLC cell lines such as NCI-H522 [American Type Culture Collection (hereinafter referred to as ATCC) No. CRL-5810], NCI-H838 (ATCC No. CRL-5844), NCI-H1437 (ATCC No. CRL-5872) and NCI-H2228 (ATCC No. CRL-5935) were cultured in a culture medium [RPMI1640 (GIBCO), 10% inactivated bovine serum (FCS, GIBCO)].
(§6) Next, cells were detached from culture flasks using TrypLE Express (GIBCO) and suspended in a folic acid-free medium [RPMI 1640 folate-free (GIBCO), 10% inactivated dialyzed FCS (dFCS, GIBCO)]. The cells were seeded to 25-cm^2 tissue culture (TC) flasks at 2.5×10^5 cells/4 mL.
as §1, §2, §3

[7] = test system: FOLR1 expression in NCI-H2228; test: as above; type: cell-based, human; conditions: NCI-H2228, low folic acid medium, 72 hours
Experimental: as §5, §6, §1, §2, §3

[8] = test system: FOLR1 expression in NCI-H522; test: as above; type: cell-based, human; conditions: NCI-H522, low folic acid medium, 0, 10 or 1000 nmol/L pemetrexed, 72 hours
Experimental: as §5, §6, §1, §2, §3

[9] = test system: FOLR1 expression in NCI-H1437; test: as above; type: cell-based, human; conditions: NCI-H1437, low folic acid medium, 72 hours
Experimental: as §5, §6, §1, §2, §3

[10] = test system: FOLR1 expression in MES-SA; test: Expression level of FOLR1 in endometrial cancer cell line after incubation with pemetrexed; type: cell-based, human
Experimental: (§7) Endometrial cancer-derived cell line MES-SA (ATCC No. CRL-1976) and HEC-1-A (ATCC No. HTB-112) were cultured in McCoy's 5A medium (ATCC) containing 10% FCS (GIBCO), and HEC-1-B (ATCC No. HTB-113) was cultured in Eagle's Minimum Essential Medium (ATCC) containing 10% FCS (GIBCO).
(§8) Also, a flow cytometer manufactured by Becton, Dickinson and Company (FACSVerse) was used instead of the flow cytometer manufactured by Beckman Coulter, Inc. (FC500MPL).

[11] = test system: FOLR1 expression in HEC-1-A; test: as above; type: cell-based, human
Experimental: as §7, §8

[12] = test system: FOLR1 expression in HEC-1-B; test: as above; type: cell-based, human
Experimental: as §7, §8

[13] = test system: ovarian cancer; conditions: cited from earlier work
[14] = test system: ovarian cancer cell line MCAS; test: ADCC activity against pemetrexed-treated MCAS using healthy donor PBMCs (LDH release); type: cell-based, human; conditions: for ADCC activity against MCAS cultured with pemetrexed versus cultured without pemetrexed: 20 nmol/L pemetrexed, P<0.05
Experimental: (§9) These cells were adjusted at 1×10^4 cells/50 μL using ADCC measurement medium [phenol red-free RPMI1640 (GIBCO), 5% inactivated dFCS (GIBCO)] as target cell solutions.
(§10) Next, heparin-treated peripheral blood of a healthy donor was loaded into a LeucoSep lymphocyte separation tube (Greiner) filled with Lymphoprep (Cosmo Bio), and centrifuged at 1000×g for 20 minutes at room temperature.
(§11) After the centrifugation, the plasma fraction was removed, and the peripheral blood mononuclear cell (PBMC) layer was collected. Then, the cells were washed with the ADCC measurement medium. The PBMCs were adjusted at 2.5×10^5 cells/50 μL using the ADCC measurement medium as an effector cell solution.
HuRA15-7CTAcc antibody and MORAb-003 (farletuzumab) were used as anti-human FOLR1 humanized antibodies. The antibody solutions were prepared at 0.1, 1, 10, 100 and 1000 ng/mL with the ADCC measurement medium, so that the final concentrations of the assay became 0.033, 0.33, 3.3, 33 and 333 ng/mL.
(§12) Fifty μL of each the target cell solution, the effector cell solution, and the antibody solution, which were prepared as described above, were mixed in a U-bottom 96-well plate, so that the total volume of each well was 150 μL. After mixing the wells, the cells were precipitated by centrifugation at 50×g for five minutes at room temperature. These cells were reacted for four hours at 37° C.
(§13) After mixing the wells, the cells were precipitated again by centrifugation. Then, 50 μL of the supernatant of each well was dispensed to a new 96-well plate. The lactate dehydrogenase (LDH) activities of the dispensed supernatant solutions were measured using CytoTox 96 Non-Radioactive Cytotoxicity Assay (Promega) according to the instruction.
(§14) The ADCC activity was calculated by the following equation after subtracting the measured LDH activity value of the well containing the ADCC measurement medium only from the measured LDH activity value of all wells. These values were determined as the corrected LDH activity value of each well.
ADCC Activity (%)=100×(Exp−ET spo)/(T total−D−T spo) [Chem. 1]
Here, Exp is the corrected LDH activity value of a sample; ET spo is the corrected LDH activity value of the well in which the effector cell solution and the target cell solution were mixed; T total is the corrected LDH activity value of the well in which the target cells and the Lysis Solution attached to CytoTox 96 Non-Radioactive Cytotoxicity Assay were mixed; D is the corrected LDH activity value of the Lysis Solution; and T spo is the corrected LDH activity value of the well containing the target cells only.

[15] = test system: NSCLC cell line NCI-H2228; test: ADCC activity against pemetrexed-treated NCI-H2228 using healthy donor PBMCs (LDH release); type: cell-based, human; conditions: for ADCC activity against NCI-H2228 cultured with pemetrexed versus cultured without pemetrexed: 1000 nmol/L pemetrexed, P<0.05
Experimental: as §9, §10, §11
HuRA15-7CTAcc antibody and MORAb-003 (farletuzumab) were used as anti-human FOLR1 humanized antibodies.
as §12, §13, §14
ADCC Activity (%)=100×(Exp−ET spo)/(T total−D−T spo) [Chem. 1] […]
The ADCC activity against the NSCLC cell line NCI-H2228 was evaluated by a similar method to that in Example 3 except for using pemetrexed at the final concentration of 0, 20 or 1000 nmol/L in the culture.

[16] = test system: NSCLC; conditions: patients with NSCLC; clinical trials terminated; cited from earlier work
[17] = 1000 nmol/L pemetrexed in low folic acid medium
[18] = low folic acid medium, 0, 10 or 1000 nmol/L pemetrexed, 72 hours

## Nc1nc2[nH]cc(CCc3ccc(C(=O)N[C@@H](CCC(=O)O)C(=O)O)cc3)c2c(=O)[nH]1 [pemetrexed]
[1]; SKOV-3, 1000 nmol/L pemetrexed in low folic acid medium
  expression level of FOLR1 relative to incubation in the culture medium (NC): about 2.5 times
[1]; SKOV-3, low folic acid medium, 0, 10 or 1000 nmol/L pemetrexed
  expression level of FOLR1, dependence on pemetrexed concentration: higher concentration of pemetrexed induced higher expression level of FOLR1
[2]
  expression level of FOLR1 compared to incubation in the culture medium: did not increase
[3]; IGR-OV1, 1000 nmol/L pemetrexed in low folic acid medium
  expression level of FOLR1 relative to incubation in the culture medium (NC): about 2.5 times
[3]; IGR-OV1, low folic acid medium, 0, 10 or 1000 nmol/L pemetrexed
  expression level of FOLR1, dependence on pemetrexed concentration: higher concentration of pemetrexed induced higher expression level of FOLR1
[4]; [17]
  expression level of FOLR1 relative to incubation in the culture medium (NC): about 7 times
[4]; low folic acid medium, 0, 10 or 1000 nmol/L pemetrexed
  expression level of FOLR1, dependence on pemetrexed concentration: higher concentration of pemetrexed induced higher expression level of FOLR1
[5]
  viability at 72 h, 20 nmol/L: 96.6%
[6]
  expression level of FOLR1, dependence on pemetrexed concentration: higher concentration of pemetrexed induced higher expression level of FOLR1
[7]; 10 nmol/L pemetrexed
  expression level of FOLR1 relative to incubation with 0 nmol/L pemetrexed: about 1.5 times
[7]; 1000 nmol/L pemetrexed
  expression level of FOLR1 relative to incubation with 0 nmol/L pemetrexed: ~2 times
[8]
  expression level of FOLR1, dependence on pemetrexed concentration: higher concentration of pemetrexed induced higher expression level of FOLR1
[9]; 10 nmol/L pemetrexed
  expression level of FOLR1 relative to incubation with 0 nmol/L pemetrexed: about 1.5 times
[9]; 1000 nmol/L pemetrexed
  expression level of FOLR1 relative to incubation with 0 nmol/L pemetrexed: ~2 times
[10]; [17]
  expression level of FOLR1 relative to culture in the culture medium (NC): approximately 3.5 times
[10]; [18]
  expression level of FOLR1, dependence on pemetrexed concentration: higher pemetrexed treatment induced higher expression level of FOLR1
[11]; [17]
  expression level of FOLR1 relative to culture in the culture medium (NC): approximately 3 times
[11]; [18]
  expression level of FOLR1, dependence on pemetrexed concentration: higher pemetrexed treatment induced higher expression level of FOLR1
[12]; [17]
  expression level of FOLR1 relative to culture in the culture medium (NC): approximately 2 times
[12]; [18]
  expression level of FOLR1, dependence on pemetrexed concentration: higher pemetrexed treatment induced higher expression level of FOLR1

## MORAb-003: existing anti-human FOLR1 humanized IgG1 antibody, sequences described in WO2005/080431
[13]; patients with platinum-resistant ovarian cancer, clinical trials terminated
  clinical benefit: did not show benefit
[13]; patients with platinum-sensitive recurrent ovarian cancer
  clinical response: responses in some patients
[14]; healthy donor 2-derived PBMCs, antibody 0.33, 3.3, 33 and 333 ng/mL
  ADCC activity against MCAS cultured with pemetrexed versus cultured without pemetrexed: significantly higher
[15]; antibody 0.0033, 3.3, 33 and 333 ng/mL
  ADCC activity against NCI-H2228 cultured with pemetrexed versus cultured without pemetrexed: significantly higher
[16]
  clinical benefit: did not show benefit

B1: HuRA15-7CTAcc: anti-human FOLR1 humanized antibody, VH SEQ ID NO: 8, VL SEQ ID NO: 9, expressed in FUT8 knocked out CHO/DG44 (WO2014/087863) (antibody, V domains shown)
VH: EVQLVESGGGLVQPGGSLRLSCAASGFTFTDFYMNWVRQPPGKAPEWLGFIRNKANGYTTEFNPSVKGRFTISRDNSKNSLYLQMNSLKTEDTATYYCARTLYGYAYYYVMDAWGQGTLVTVSS
VL: DIQMTQSPSSLSASLGDRVTITCRTSEDIFRNLAWYQQKPGKAPKLLIYDTNRLADGVPSRFSGSGSGTDYTLTISSLQPEDFATYFCQQYDNYPLTFGQGTKLEIK
modifications: afucosylated; nonS_HuRA15-7CTVH_AA; nonS_HuRA15-7LV3_AA
[14]; healthy donor 1-derived PBMCs, all the antibody concentrations
  ADCC activity against MCAS cultured with pemetrexed versus cultured without pemetrexed: significantly higher
[14]; healthy donor 2-derived PBMCs, antibody 0.033 and 0.33 ng/mL
  ADCC activity against MCAS cultured with pemetrexed versus cultured without pemetrexed: significantly higher
[14]; MCAS, PBMCs of two healthy donors, antibody 0.033-333 ng/mL
  ADCC activity, dependence on antibody concentration: cytotoxicity was observed in association with the antibody concentration
[15]; all the antibody concentrations
  ADCC activity against NCI-H2228 cultured with pemetrexed versus cultured without pemetrexed: significantly higher
[15]; NCI-H2228, PBMCs of a healthy donor
  ADCC activity, dependence on antibody concentration: cytotoxicity was observed in association with the antibody concentration
